Experiments:
[1] = molecular target: T1, chitin synthase 1 of Candida albicans chs2 Δ chs 3 Δ (Candida albicans, UniProt P23316); test: In vitro enzyme assay for chitin synthase 1 of Candida albicans (enzyme 1); format: biochemical; details: relative to polyoxin D (50% inhibitory activity = value 5)
T1 construct: Crude enzyme was prepared using the Candida albicans chs2 Δ chs 3 Δ mutant; endogenous in cells; host or cells: Candida albicans chs2Δ/chs2Δ chs3Δ/chs3Δ mutant; 130,000 x g membrane pellet
Procedure: Crude enzyme was prepared using the Candida albicans chs2 Δ chs 3 Δ mutant (chs2 Δ::hisG/chs2 Δ::hisG chs3 Δ::hisG/chs3 Δ::hisG) strain, which can only produce the chitin synthase 1. The strain was inoculated with the SDA (Sabouraud dextrose agar) culture medium (4% dextrose, 1% peptone, pH 5.6) and cultured at 30° C. for 15-17 hours until the absorbance at 550nm reaches 0.7. The cells were collected and suspended in a 50 mM Tris-HCl (pH 7.5) buffer solution containing 5 mM magnesium acetate. After centrifugation at 8,000×g for 10 minutes, the pellets were suspended in the same Tris-HCl buffer solution. The suspension was divided into aliquots in 50 mL conical test tubes. After adding glass beads, the cells were disrupted by vigorously vortexing with an interval of 30 seconds. The cell residues were removed by centrifuging at 3,000×g for 5 minutes. The supernatant was ultra-centrifuged at 130,000×g for 1 hour. The resultant pellets were collected and suspended in 50 mM Tris-HCl (pH 7.5) containing 33% glycerol, to a final volume of 1.6 mg/g (wet weight) of yeast used. The suspension was divided into aliquots and kept at −70° C. until it is used.
(§1) The inhibitory activities against the chitin synthase 1 of Candida albicans chs2 Δ chs 3 Δ (abbreviated as ‘enzyme 1’) and the chitin synthase 2 of Saccharomyces cerevisiae ECY38-38A(pAS6)(abbreviated as ‘enzyme 2’) was examined for compound Nos. 1 to 70 compound and polyoxin D, a positive control compound.
(§2) The inhibitory activity against the chitin synthase 1 prepared from Candida albicans and the chitin synthase 2 prepared from Saccharomyces cerevisiae were examined as follows. A reaction mixture containing 32 mM Tris-HCl (pH 7.5), 2 mM cobalt acetate, 1.1 mM UDP-[U-^14C]-N-acetyl-d-glucosamine (GlcNAc) (400,000 cpm/μmol), 2 μL of trypsin (0.75 mg/mL), 20 μL of each crude enzyme and 14 μL of each test sample was kept at 30° C. for 15 minutes to activate the enzyme. Then, 2 μL of trypsin inhibitor (1.5 mg/mL) was added and the mixture was kept in an ice bath for 10 minutes to deactivate trypsin. 2 μL of 0.8 M N-acetyl-d-glucosamine was added to a total volume of 50 μL and reaction was performed at 30° C. for 90 minutes. The reaction was stopped using 1 mL of 10% TCA solution and the reaction solution was filtered with a GF/C filter and dried at room temperature. After adding 3 mL of a scintillation cocktail solution, the amount of isotopes was measured using a liquid scintillation counter. Percentage inhibition against each enzyme was calculated by the following Equation 1.
(§3) The control group was not added with a test sample in the reaction mixture and that of the untreated group contained neither the test sample nor the crude enzyme.
(§4) A 50% inhibitory activity of polyoxin D against the enzyme was given the value 5. A compound having the same inhibitory activity as that of polyoxin D at the same concentration was given the value 5. Compounds having the inhibitory activity at 2-fold, 4-fold, 8-fold and 16-fold higher concentrations than that of polyoxin D were given the values of 4, 3, 2 and 1, respectively. On the other hand, compounds having the inhibitory activity at ½, ¼ and ⅛ lower concentrations than that of polyoxin D were given the values of 6, 7 and 8, respectively.

[2] = molecular target: T2, chitin synthase 2 of Saccharomyces cerevisiae ECY38-38A(pAS6) (Saccharomyces cerevisiae, UniProt P14180); test: In vitro enzyme assay for chitin synthase 2 of Saccharomyces cerevisiae (enzyme 2); format: biochemical; details: relative to polyoxin D (50% inhibitory activity = value 5)
T2 construct: made in house; host or cells: Saccharomyces cerevisiae ECY38-38A (chs1-23 chs2::LEU2 cal1/csd2) carrying plasmid pAS6, grown in galactose medium; 130,000 x g membrane pellet
Procedure: Crude enzyme was prepared using the recombinant Saccharomyces cerevisiae ECY38-38A(pAS6) (MATa chs1-23 chs2::LEU2 cal 1/csd 2 ura 3-52 trp 1-1 leu 2-2 pAS6) strain, which can produce the chitin synthase 2 only. The strain was inoculated with the YPG culture medium (1% yeast extract, 2% peptone, 2% galactose) and cultured at 30° C. overnight. Then, it was inoculated with a fresh YPG culture medium and cultured for 15-17 hours until the Absorbance at 550 nm reaches 1.0. The cells were collected and suspended in 50 mM Tris-HCl (pH 7.5) buffer containing 5 mM magnesium acetate. After centrifugation at 8,000×g for 10 minutes, the pellets were suspended in the same Tris-HCl buffer solution. The suspension was divided into aliquots in 50 mL conical test tubes. After adding the glass beads, the cells were disrupted by vigorously vortexing with an interval of 30 seconds. The cell residues were removed by centrifuging at 3,000×g for 5 minutes. The supernatant was ultra-centrifuged at 130,000×g for 1 hour. The resultant pellets were collected and suspended in 50 mM Tris-HCl (pH 7.5) containing 33% glycerol, to a final volume of 1.6 mg/g (wet weight) of yeast used. The suspension was divided into aliquots and kept at −70° C. until it is used.
as §1, §2, §3, §4

T2 sequence (P14180 whole entry): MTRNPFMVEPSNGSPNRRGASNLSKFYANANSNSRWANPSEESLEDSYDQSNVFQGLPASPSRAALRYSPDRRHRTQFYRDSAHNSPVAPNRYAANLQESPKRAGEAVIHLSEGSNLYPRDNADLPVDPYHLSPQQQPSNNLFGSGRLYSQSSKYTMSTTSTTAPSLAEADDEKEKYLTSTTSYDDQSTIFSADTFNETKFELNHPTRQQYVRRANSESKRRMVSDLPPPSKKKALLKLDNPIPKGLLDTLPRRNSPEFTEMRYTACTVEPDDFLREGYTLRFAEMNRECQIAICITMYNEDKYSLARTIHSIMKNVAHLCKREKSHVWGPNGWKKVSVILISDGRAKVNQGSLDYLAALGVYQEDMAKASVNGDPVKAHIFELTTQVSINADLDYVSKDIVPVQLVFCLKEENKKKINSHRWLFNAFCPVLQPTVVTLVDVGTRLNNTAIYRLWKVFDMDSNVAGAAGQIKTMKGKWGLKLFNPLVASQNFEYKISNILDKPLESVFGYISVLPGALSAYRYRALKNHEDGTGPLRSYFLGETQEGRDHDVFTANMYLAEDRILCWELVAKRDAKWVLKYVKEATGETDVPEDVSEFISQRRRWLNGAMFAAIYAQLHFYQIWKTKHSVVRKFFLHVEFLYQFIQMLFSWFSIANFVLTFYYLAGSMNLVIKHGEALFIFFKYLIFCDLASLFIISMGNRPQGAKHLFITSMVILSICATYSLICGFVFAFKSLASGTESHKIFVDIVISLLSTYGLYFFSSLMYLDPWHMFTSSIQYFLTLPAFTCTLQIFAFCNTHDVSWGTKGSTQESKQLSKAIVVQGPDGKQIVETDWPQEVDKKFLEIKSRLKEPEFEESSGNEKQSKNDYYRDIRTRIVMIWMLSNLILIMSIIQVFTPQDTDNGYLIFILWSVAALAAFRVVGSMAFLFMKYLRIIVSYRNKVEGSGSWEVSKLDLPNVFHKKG
T1 sequence (P23316 whole entry, stated change not applied): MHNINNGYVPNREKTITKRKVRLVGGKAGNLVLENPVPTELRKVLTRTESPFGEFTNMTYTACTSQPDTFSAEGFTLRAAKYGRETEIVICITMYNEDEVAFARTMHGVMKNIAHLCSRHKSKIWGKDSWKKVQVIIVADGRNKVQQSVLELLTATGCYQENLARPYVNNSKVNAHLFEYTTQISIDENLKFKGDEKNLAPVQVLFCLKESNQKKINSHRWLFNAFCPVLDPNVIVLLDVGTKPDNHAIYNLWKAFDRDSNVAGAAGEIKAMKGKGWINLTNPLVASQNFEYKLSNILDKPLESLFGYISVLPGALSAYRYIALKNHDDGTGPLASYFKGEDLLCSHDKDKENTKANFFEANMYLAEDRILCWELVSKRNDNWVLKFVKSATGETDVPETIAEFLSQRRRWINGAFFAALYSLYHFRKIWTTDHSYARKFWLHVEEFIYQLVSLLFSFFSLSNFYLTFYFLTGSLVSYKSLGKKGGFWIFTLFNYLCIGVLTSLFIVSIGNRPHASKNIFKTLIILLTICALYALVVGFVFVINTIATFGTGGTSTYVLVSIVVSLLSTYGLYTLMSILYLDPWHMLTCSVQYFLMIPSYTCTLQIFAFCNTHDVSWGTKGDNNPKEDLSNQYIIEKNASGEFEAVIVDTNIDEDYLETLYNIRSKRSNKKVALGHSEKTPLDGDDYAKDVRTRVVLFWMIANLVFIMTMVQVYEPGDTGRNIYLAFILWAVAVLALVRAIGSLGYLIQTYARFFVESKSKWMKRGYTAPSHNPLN

| Molecule | Relative activity Enzyme 1 [1] | Relative activity Enzyme 2 [2] |
| --- | --- | --- |
| 13-(4-Trifluoromethoxybenzyl)berberrubine [Compound No. 3] | 1 (Compounds having the inhibitory activity at 2-fold, 4-fold, 8-fold and 16-fold higher concentrations than that of polyoxin D were given the values of 4, 3, 2 and 1, respectively) | 3 (Compounds having the inhibitory activity at 2-fold, 4-fold, 8-fold and 16-fold higher concentrations than that of polyoxin D were given the values of 4, 3, 2 and 1, respectively) |
| 13-(4-Trifluoromethylbenzyl)-9-O-butylberberrubine chloride [Compound No. 68] | 3 (Compounds having the inhibitory activity at 2-fold, 4-fold, 8-fold and 16-fold higher concentrations than that of polyoxin D were given the values of 4, 3, 2 and 1, respectively) | 6 (compounds having the inhibitory activity at ½, ¼ and ⅛ lower concentrations than that of polyoxin D were given the values of 6, 7 and 8, respectively) |
| 13-(4-Trifluoromethylbenzyl)-9-O-butylberberrubine iodide [Compound No. 36] | 3 (Compounds having the inhibitory activity at 2-fold, 4-fold, 8-fold and 16-fold higher concentrations than that of polyoxin D were given the values of 4, 3, 2 and 1, respectively) | 6 (compounds having the inhibitory activity at ½, ¼ and ⅛ lower concentrations than that of polyoxin D were given the values of 6, 7 and 8, respectively) |
| 13-(4-Trifluoromethylbenzyl)-9-O-hexylberberrubine chloride [Compound No. 69] | 3 (Compounds having the inhibitory activity at 2-fold, 4-fold, 8-fold and 16-fold higher concentrations than that of polyoxin D were given the values of 4, 3, 2 and 1, respectively) | 5 (A compound having the same inhibitory activity as that of polyoxin D at the same concentration was given the value 5) |
| 13-(4-Trifluoromethylbenzyl)-9-O-hexylberberrubine iodide [Compound No. 37] | 2 (Compounds having the inhibitory activity at 2-fold, 4-fold, 8-fold and 16-fold higher concentrations than that of polyoxin D were given the values of 4, 3, 2 and 1, respectively) | 5 (A compound having the same inhibitory activity as that of polyoxin D at the same concentration was given the value 5) |
| 13-(4-Trifluoromethylbenzyl)berberrubine [Compound No. 4] | 1 (Compounds having the inhibitory activity at 2-fold, 4-fold, 8-fold and 16-fold higher concentrations than that of polyoxin D were given the values of 4, 3, 2 and 1, respectively) | 3 (Compounds having the inhibitory activity at 2-fold, 4-fold, 8-fold and 16-fold higher concentrations than that of polyoxin D were given the values of 4, 3, 2 and 1, respectively) |
| 13-(4-tert-Butylbenzyl)berberrubine [Compound No. 5] | 2 (Compounds having the inhibitory activity at 2-fold, 4-fold, 8-fold and 16-fold higher concentrations than that of polyoxin D were given the values of 4, 3, 2 and 1, respectively) | 4 (Compounds having the inhibitory activity at 2-fold, 4-fold, 8-fold and 16-fold higher concentrations than that of polyoxin D were given the values of 4, 3, 2 and 1, respectively) |
| COc1ccc2c(Cc3ccc(C(F)(F)F)cc3)c3[n+](cc2c1OC)CCc1cc2c(cc1-3)OCO2.[Cl-] [Comparative compound 2, reference compound] | <1 (Compounds having the inhibitory activity at 2-fold, 4-fold, 8-fold and 16-fold higher concentrations than that of polyoxin D were given the values of 4, 3, 2 and 1, respectively) | 2 (Compounds having the inhibitory activity at 2-fold, 4-fold, 8-fold and 16-fold higher concentrations than that of polyoxin D were given the values of 4, 3, 2 and 1, respectively) |
| COc1ccc2c(Cc3ccc(C(OC)(OC)OC)cc3)c3[n+](cc2c1OC)CCc1cc2c(cc1-3)OCO2.[Cl-] [Comparative compound 3, reference compound] | <1 (Compounds having the inhibitory activity at 2-fold, 4-fold, 8-fold and 16-fold higher concentrations than that of polyoxin D were given the values of 4, 3, 2 and 1, respectively) | 1 (Compounds having the inhibitory activity at 2-fold, 4-fold, 8-fold and 16-fold higher concentrations than that of polyoxin D were given the values of 4, 3, 2 and 1, respectively) |
| COc1ccc2c(Cc3cc(F)c(F)c(F)c3)c3[n+](cc2c1OCc1ccc(C(C)(C)C)cc1)CCc1cc2c(cc1-3)OCO2.[Br-] [Compound No. 29, 13-(3,4,5-Trifluorobenzyl)-9-O-(4-tert-butylbenzyl)berberrubine bromide] | 2 (Compounds having the inhibitory activity at 2-fold, 4-fold, 8-fold and 16-fold higher concentrations than that of polyoxin D were given the values of 4, 3, 2 and 1, respectively) | 5 (A compound having the same inhibitory activity as that of polyoxin D at the same concentration was given the value 5) |
| COc1cc(Cc2c3[n+](cc4c(OCc5ccc(C(C)(C)C)cc5)c(OC)ccc24)CCc2cc4c(cc2-3)OCO4)cc(OC)c1OC.[Br-] [Compound No. 32, 13-(3,4,5-Trimethoxybenzyl)-9-O-(4-tert-butylbenzyl)berberrubine bromide] | 2 (Compounds having the inhibitory activity at 2-fold, 4-fold, 8-fold and 16-fold higher concentrations than that of polyoxin D were given the values of 4, 3, 2 and 1, respectively) | 4 (Compounds having the inhibitory activity at 2-fold, 4-fold, 8-fold and 16-fold higher concentrations than that of polyoxin D were given the values of 4, 3, 2 and 1, respectively) |
| COc1ccc2c(Cc3ccc(OC(F)(F)F)cc3)c3[n+](cc2c1OCc1ccc(C(C)(C)C)cc1)CCc1cc2c(cc1-3)OCO2.[Br-] [Compound No. 35, 13-(4-Trifluoromethoxybenzyl)-9-O-(4-tert-butylbenzyl)berberrubine bromide] | 2 (Compounds having the inhibitory activity at 2-fold, 4-fold, 8-fold and 16-fold higher concentrations than that of polyoxin D were given the values of 4, 3, 2 and 1, respectively) | 5 (A compound having the same inhibitory activity as that of polyoxin D at the same concentration was given the value 5) |
| COc1ccc2c(Cc3ccc(C(F)(F)F)cc3)c3[n+](cc2c1OCc1ccc(C(C)(C)C)cc1)CCc1cc2c(cc1-3)OCO2.[Br-] [Compound No. 38, 13-(4-Trifluoromethylbenzyl)-9-O-(4-tert-butylbenzyl)berberrubine bromide] | 2 (Compounds having the inhibitory activity at 2-fold, 4-fold, 8-fold and 16-fold higher concentrations than that of polyoxin D were given the values of 4, 3, 2 and 1, respectively) | 5 (A compound having the same inhibitory activity as that of polyoxin D at the same concentration was given the value 5) |

From US7915276B2, “Berberrubine derivatives having antifungal activities” (priority 2006, dated 2011)
